Data published in patent US11884675B2, “Heterocyclic compounds as triggering receptor expressed on myeloid cells 2 agonists and methods of use” (AMGEN INC., priority 2020, dated 2024).

These molecules were tested against hTREM2 (Homo sapiens, UniProt Q9NZC2) (assay: TREM2 activity by cellular Syk phosphorylation (AlphaScreen/AlphaLISA) in TREM2/DAP12-HEK cells, used for Examples 1-305). Settings: HEK293 Cells.
Type: cell-based
Set-up: expressed in transfected cells
Procedure, shortened: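 Phospho-Syk (Tyr525/526) over total Syk quantified by AlphaScreen in lysates of cloned TREM2/DAP12-overexpressing HEK293 cells after 45 min compound treatment at room temperature, 1% final DMSO. Values expressed relative to 100 nM anti-TREM2 antibody (positive) and isotype IgG (negative) controls; curves fitted with 4-parameter logistic model.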

Chain of hTREM2 (Q9NZC2 19-230): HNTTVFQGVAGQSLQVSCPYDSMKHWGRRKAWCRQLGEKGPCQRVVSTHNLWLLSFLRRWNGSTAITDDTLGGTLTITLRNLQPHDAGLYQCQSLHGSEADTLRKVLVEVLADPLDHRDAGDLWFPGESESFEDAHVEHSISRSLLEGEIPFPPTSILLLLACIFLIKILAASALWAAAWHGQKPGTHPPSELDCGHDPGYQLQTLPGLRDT
Chain of hTREM2 (O43914 22-113 partner): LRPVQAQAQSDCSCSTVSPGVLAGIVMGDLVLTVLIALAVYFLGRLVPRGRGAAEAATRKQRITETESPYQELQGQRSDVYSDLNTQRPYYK

For `Cc1ccc(-c2nc([C@@H]3CCO[C@@H](c4ccnc(C)c4)C3)nc3nc(C)c(C)nc23)c(F)c1` [Example 285, 4-(2-fluoro-4-methylphenyl)-6,7-dimethyl-2-((2R,4R)-2-(2-methylpyridin-4-yl)tetrahydro-2H-pyran-4-yl)pteridine], which EC50 is on record?
Its EC50 is 50 to 500 nM.

What about the “hTREM2 Emax” value of the same molecule?
Its value is “++++ (Emax>250)”.

What does the source list for `Cc1nc2nc(N3CCO[C@@H](c4cnn(C)c4)C3)nc(-c3cc(F)c(F)c(F)c3)c2nc1C` [Example 18, 6,7-dimethyl-2-((2S)-2-(1-methyl-1H-pyrazol-4-yl)-4-morpholinyl)-4-(3,4,5-trifluorophenyl)pteridine]?
EC50: ≤ 50 nM; hTREM2 Emax: +++ (Emax>150 and ≤250)

Which results are given for `Cc1nc2nc([C@@H]3CCO[C@@H](c4cnn(C)c4)C3)nc([C@H]3C[C@H](C(F)(F)F)C3)c2nc1C` (single isomer, unassigned) [Example 204]?
EC50: 500 to 3000 nM; hTREM2 Emax: ++++ (Emax>250)

How did the EC50 turn out when `Cc1nc2nc([C@H]3CCO[C@@H](c4cnn(C)c4)C3)nc([C@H]3C[C@H](C(F)(F)F)C3)c2nc1C` (single isomer, unassigned) [Example 205] was run?
The EC50 was 50 to 500 nM.

What about the “hTREM2 Emax” value of the same molecule?
Its value is “+++ (Emax>150 and ≤250)”.

Which EC50 does the source give for `Cc1cc([C@@H]2CN(c3nc(-c4ccc(Cl)cc4F)c4ccc(C)nc4n3)CCO2)cnn1` [Example 259, (R)-4-(4-(4-chloro-2-fluorophenyl)-7-methylpyrido[2,3-d]pyrimidin-2-yl)-2-(6-methylpyridazin-4-yl)morpholine] here?
The EC50 was at most 50 nM.

What about the “hTREM2 Emax” value of the same molecule?
The value was “++++ (Emax>250)”.

Which results are given for `Cc1cc2c(-c3ccc(Cl)cc3F)nc([C@@H]3CCO[C@@H](c4cnn(C)c4)C3)nc2nc1C` (single isomer, unassigned) [Example 225]?
EC50: 50 to 500 nM; hTREM2 Emax: +++ (Emax>150 and ≤250)

Which EC50 does the source give for `Cc1cc([C@@H]2C[C@H](c3nc(-c4ccc(F)cc4F)c4nc(C)c(C)nc4n3)CCO2)ccn1` [Example 252, 4-(2,4-difluorophenyl)-6,7-dimethyl-2-((2S,4R)-2-(2-methylpyridin-4-yl)tetrahydro-2H-pyran-4-yl)pteridine] here?
Its EC50 is at most 50 nM.

And the “hTREM2 Emax” value?
Its value is “+++ (Emax>150 and ≤250)”.

What does the source list for `Cc1ncc2c(-c3ccc(Cl)cc3F)cc(N3CCO[C@@H](c4cnn(C)c4)C3)cc2n1` [Example 153, 5-(4-chloro-2-fluorophenyl)-2-methyl-7-((2S)-2-(1-methyl-1H-pyrazol-4-yl)-4-morpholinyl) quinazoline]?
EC50: 50 to 500 nM; hTREM2 Emax: +++ (Emax>150 and ≤250)

Which EC50 does the source give for `Cc1cc([C@H]2C[C@@H](c3nc(-c4ccc(Cl)cc4F)c4nc(C)c(C)nc4n3)CCO2)ccn1` (single isomer, unassigned) [Example 207] here?
The EC50 was at most 50 nM.

And the “hTREM2 Emax” value?
The value was “+++ (Emax>150 and ≤250)”.

How did the EC50 turn out when `Cc1cc([C@H]2CN(c3nc(-c4ccc(Cl)cc4F)c4ccc(C)nc4n3)CCO2)ccn1` [Example 88, 4-(4-chloro-2-fluorophenyl)-7-methyl-2-((2S)-2-(2-methyl-4-pyridinyl)-4-morpholinyl)pyrido[2,3-d]pyrimidine] was run?
Its EC50 is at most 50 nM.

And the “hTREM2 Emax” value?
The value was “++++ (Emax>250)”.

`Cc1nc2nc(N3CCO[C@@H](c4cnn(C)c4)C3)nc(-c3ccc(F)cc3F)c2nc1C` [Example 31, 4-(2,4-difluorophenyl)-6,7-dimethyl-2-((2S)-2-(1-methyl-1H-pyrazol-4-yl)-4-morpholinyl)pteridine] was tested. Which EC50 did it give?
The EC50 was at most 50 nM.

What about the “hTREM2 Emax” value of the same molecule?
Its value is “+++ (Emax>150 and ≤250)”.

`Cc1ccc2c(-c3ccc(Cl)cc3F)nc(N3CCO[C@@H](c4cnn(C)c4)C3)cc2n1` [Example 148, 5-(4-chloro-2-fluorophenyl)-2-methyl-7-((2S)-2-(1-methyl-1H-pyrazol-4-yl)-4-morpholinyl)-1,6-naphthyridine] was tested. Which EC50 did it give?
Its EC50 is 50 to 500 nM.

What about the “hTREM2 Emax” value of the same molecule?
The value was “+++ (Emax>150 and ≤250)”.

Which results are given for `Cc1nc2nc([C@H]3CCO[C@H](c4cnn(C)c4)C3)nc(-c3ccc(F)cc3F)c2nc1C` [Example 263, 4-(2,4-difluorophenyl)-6,7-dimethyl-2-((2S,4S)-2-(1-methyl-1H-pyrazol-4-yl)tetrahydro-2H-pyran-4-yl)pteridine]?
EC50: 500 to 3000 nM; hTREM2 Emax: +++ (Emax>150 and ≤250)

Which EC50 does the source give for `Cc1nc2nc(N3CCO[C@@H](c4cnn(C)c4)C3)nc(-c3cc(F)c(F)cc3F)c2nc1C` [Example 62, 6,7-dimethyl-2-((2S)-2-(1-methyl-1H-pyrazol-4-yl)-4-morpholinyl)-4-(2,4,5-trifluorophenyl)pteridine] here?
The EC50 was at most 50 nM.

And the “hTREM2 Emax” value?
Its value is “++++ (Emax>250)”.

How did the EC50 turn out when `Cc1cc2c(-c3ccc(Cl)cc3F)cc(N3CCO[C@@H](c4cnn(C)c4)C3)nc2nc1C` [Example 157, 5-(4-chloro-2-fluorophenyl)-2,3-dimethyl-7-((2S)-2-(1-methyl-1H-pyrazol-4-yl)-4-morpholinyl)-1,8-naphthyridine] was run?
Its EC50 is at most 50 nM.

What about the “hTREM2 Emax” value of the same molecule?
The value was “++++ (Emax>250)”.

Which results are given for `Cc1cnc2c(-c3ccc(F)cc3F)nc(N3CCO[C@@H](c4cnn(C)c4)C3)nc2n1` [Example 6, 4-(2,4-difluorophenyl)-7-methyl-2-((2S)-2-(1-methyl-1H-pyrazol-4-yl)-4-morpholinyl)pteridine]?
EC50: 50 to 500 nM; hTREM2 Emax: +++ (Emax>150 and ≤250)

For `Cc1ccc2c(n1)nc(N1CCO[C@@H](c3cnn(C)c3)C1)nc2[C@H]1C[C@H](C(F)(F)F)C1` [Example 97, 7-methyl-2-((2S)-2-(1-methyl-1H-pyrazol-4-yl)-4-morpholinyl)-4-(trans-3-(trifluoromethyl)cyclobutyl)pyrido[2,3-d]pyrimidine], which EC50 is on record?
Its EC50 is 500 to 3000 nM.

And the “hTREM2 Emax” value?
Its value is “+ (Emax>45 and ≤100)”.

How did the EC50 turn out when `Cc1cc2c(-c3ccc(Cl)cc3F)nc(N3CCO[C@@H](c4cnn(C)c4)C3)cc2nc1C` [Example 152, 5-(4-chloro-2-fluorophenyl)-2,3-dimethyl-7-((2S)-2-(1-methyl-1H-pyrazol-4-yl)-4-morpholinyl)-1,6-naphthyridine] was run?
The EC50 was at most 50 nM.

And the “hTREM2 Emax” value?
Its value is “++++ (Emax>250)”.

How did the EC50 turn out when `Cc1nc2nc([C@@H]3CCO[C@H](c4cnn(C)c4)C3)nc(-c3ccc(F)cc3F)c2nc1C` [Example 256, 4-(2,4-difluorophenyl)-6,7-dimethyl-2-((2S,4R)-2-(1-methyl-1H-pyrazol-4-yl)tetrahydro-2H-pyran-4-yl)pteridine] was run?
Its EC50 is 500 to 3000 nM.

What about the “hTREM2 Emax” value of the same molecule?
Its value is “++ (Emax>100 and ≤150)”.

How did the EC50 turn out when `Cc1cc([C@H]2CN(c3nc4nc(C)cnc4c([C@H]4C[C@H](C(F)(F)F)C4)n3)CCO2)ccn1` [Example 16, 7-methyl-2-((2S)-2-(2-methyl-4-pyridinyl)-4-morpholinyl)-4-(trans-3-(trifluoromethyl)cyclobutyl)pteridine] was run?
The EC50 was at most 50 nM.

What about the “hTREM2 Emax” value of the same molecule?
The value was “+ (Emax>45 and ≤100)”.

How did the EC50 turn out when `Cc1ccc2c(n1)nc(N1CCO[C@@H](c3cnn(C4CC4)c3)C1)nc2[C@H]1CC[C@@H](C(F)(F)F)CC1` [Example 144, 2-((2S)-2-(1-cyclopropyl-1H-pyrazol-4-yl)-4-morpholinyl)-7-methyl-4-(cis-4-(trifluoromethyl)cyclohexyl)pyrido [2,3-d]pyrimidine] was run?
Its EC50 is 50 to 500 nM.

What about the “hTREM2 Emax” value of the same molecule?
The value was “++ (Emax>100 and ≤150)”.

What does the source list for `Cc1ccc(-c2nc([C@H]3CCO[C@@H](c4ccnc(C)c4)C3)nc3nc(C)c(C)cc23)c(F)c1` (single isomer, unassigned) [Example 222]?
EC50: ≤ 50 nM; hTREM2 Emax: ++++ (Emax>250)

With `Cc1nc2nc(N3CCO[C@@H](c4cnn(C5CC5)c4)C3)nc(-c3ccc(F)cc3F)c2nc1C` [Example 32, 2-((2S)-2-(1-cyclopropyl-1H-pyrazol-4-yl)-4-morpholinyl)-4-(2,4-difluorophenyl)-6,7-dimethylpteridine] as the molecule, how does the EC50 read?
The EC50 was at most 50 nM.

And the “hTREM2 Emax” value?
The value was “+++ (Emax>150 and ≤250)”.

How did the EC50 turn out when `Cc1cnc2c(n1)nc(N1CCO[C@@H](c3cnn(C)c3)C1)nc2[C@H]1C[C@@H](C(F)(F)F)C1` [Example 274, (S)-2-(1-methyl-1H-pyrazol-4-yl)-4-(7-methyl-4-((1s,3R)-3-(trifluoromethyl)cyclobutyl)pteridin-2-yl)morpholine] was run?
The EC50 was 3000 to 100000 nM.

And the “hTREM2 Emax” value?
The value was “++ (Emax>100 and ≤150)”.

How did the EC50 turn out when `Cc1nc2nc(N3CCO[C@@H](c4cnn(C)c4)C3)nc(C3=CCC(C(F)(F)F)CC3)c2nc1C` (stereo partly drawn) [Example 254, (2S)-4-(6,7-dimethyl-4-(4-(trifluoromethyl)cyclohex-1-en-1-yl)pteridin-2-yl)-2-(1-methyl-1H-pyrazol-4-yl)morpholine] was run?
The EC50 was 50 to 500 nM.

And the “hTREM2 Emax” value?
Its value is “+++ (Emax>150 and ≤250)”.

Which EC50 does the source give for `Cc1ccc2c(C34CC(C(F)(F)F)(C3)C4)nc(N3CCO[C@@H](c4cnn(C)c4)C3)nc2n1` [Example 100, 7-methyl-2-((2S)-2-(1-methyl-1H-pyrazol-4-yl)-4-morpholinyl)-4-(3-(trifluoromethyl)bicyclo[1.1.1]pentan-1-yl)pyrido[2,3-d]pyrimidine] here?
The EC50 was 50 to 500 nM.

And the “hTREM2 Emax” value?
Its value is “++ (Emax>100 and ≤150)”.

How did the EC50 turn out when `Cc1nc2nc(N3CCO[C@@H](c4cnn(C)c4)C3)nc(C3=CC[C@@H](C(F)(F)F)CC3)c2nc1C` (single isomer, unassigned) [Example 127] was run?
The EC50 was at most 50 nM.

And the “hTREM2 Emax” value?
The value was “++ (Emax>100 and ≤150)”.

Which results are given for `Cc1cc([C@H]2CN(c3nc(-c4ccc(F)cc4F)c4cc(C)c(C)nc4n3)CCO2)ccn1` [Example 168, 4-(2,4-difluorophenyl)-6,7-dimethyl-2-((2S)-2-(2-methyl-4-pyridinyl)-4-morpholinyl)pyrido[2,3-d] pyrimidine]?
EC50: ≤ 50 nM; hTREM2 Emax: ++++ (Emax>250)

How did the EC50 turn out when `Cc1nc2nc(N3CCO[C@@H](c4cnn(C5CC5)c4)C3)nc(C3CCC(F)(F)CC3)c2nc1C` [Example 138, 2-((2S)-2-(1-cyclopropyl-1H-pyrazol-4-yl)-4-morpholinyl)-4-(4,4-difluorocyclohexyl)-6,7-dimethylpteridine] was run?
The EC50 was at most 50 nM.

What about the “hTREM2 Emax” value of the same molecule?
The value was “+++ (Emax>150 and ≤250)”.

How did the EC50 turn out when `Cc1nc2nc([C@@H]3CCO[C@H](c4cnn(C5CC5)c4)C3)nc(-c3ccc(Cl)cc3F)c2nc1C` (single isomer, unassigned) [Example 180] was run?
The EC50 was 50 to 500 nM.

What about the “hTREM2 Emax” value of the same molecule?
Its value is “+++ (Emax>150 and ≤250)”.
